“Also recorded” adds a separate entry of the source.
Legend:
ARPE-19 cells [1] = system: ARPE-19 cells
Description: Cell Viability Assay. […] 1× AlamarBlue solution prepared in OptiMEM was used to replace the media supernatant and the plate's fluorescence was determined at 555 nm excitation/585 nm emission with a SpectraMax M (Molecular Devices, CA, USA), after 1 h. […] The exact timing of appearance of far-red (DRAQ7=plasma membrane leakage) and blue (NUC405=caspase 3 activation) fluorescence signals was critical to differentiate apoptosis and necrosis from secondary events, such as membrane damage and generalized proteolytic activation during the late phase of apoptosis and necrosis, respectively.
Real time monitoring of necrotic and apoptotic cell-death. Cell-death assay to study Lipofuscin's dark toxicity was performed. 90% confluent ARPE-19 or hfRPE were incubated overnight in serum free media supplemented with indicated LB concentration. Viability was assessed at 24 hrs by AlamarBlue®, or microscopy with NUC405/DRAQ7. Real time monitoring of necrotic (red) and apoptotic (blue) cell-death was performed by automated fluorescence microscopy. The exact timing of appearance of far-red (DRAQ7=plasma membrane leakage) and blue (NUC405=caspase 3 activation) fluorescence signals was critical to differentiate apoptosis and necrosis from secondary events, such as membrane damage and generalized proteolytic activation during the late phase of apoptosis and necrosis, respectively.
Chemical inhibitors. Chemical inhibitors used in this study are described in FIG. 12.

pMLKL = assay: Fluorescence microscopy of pMLKL plasma membrane translocation in ARPE-19 monolayers; assay type: cell-based, Human; conditions: ARPE-19 with A2E or ATRD
Source text: Chronic accumulation of polymeric pMLKL could account for progressive damage in pigmented retinas as they amass LF.

ARPE-19 cells [2] = assay: Blue-light phototoxicity of A2E-loaded cells, AlamarBlue; assay type: cell-based, Human; conditions: A2E 5 μM O/N, blue light 10 min, viability after 24 hrs
Description: FIG. 18A: ARPE19 cells were pretreated for 1 hr with the […] of: eIF2a (Salubrinal (SAL), SAL003, or Guanabenz); eIF4 (Briciclib or eFT508); mTOR (Rapamycin, Torin-1); or the unspecific protein translation inhibitor (Cyclohexamide CHX) and then incubated with lethal doses of A2E (25 μM) for an additional 24 hrs in the presence of these drugs. Viability was assessed with AlamarBlue®. […] Viability was assessed with AlamarBlue®. […] ARPE-19 cells were incubated O/N with a non-toxic amount of A2E (5 μM) to allow its incorporation into lysosomes and after changing the media for PBS and irradiating for 10 min with blue light cells were maintained for an additional 24 hrs in Optimem before evaluating viability, using AlamarBlue®. FIG. 18D: Fluorescence microscopy of cells incubated with lethal amounts of A2E (25 μM) in Optimem for 24 hrs. Green fluorescence corresponds to A2E deposits. Nuclei are stained with the DNA dye, Hoechst, in viable cells (blue) and with Hoechst and DRAQ7 (a DNA dye that only enter cells with disrupted membranes) in dead cells (purple).
Blue light treatment. ARPE19 cells were grown at 70% confluence and were treated with or without 20 μM A2E in culture medium for 24 h. Then, HBSS replaced the cell culture medium before blue light treatment. ARPE19 cells with or without A2E intake, were illuminated by 460+20 nm wavelength light for 20 min.

IRE1α [3] = assay: qPCR of spliced XBP1 (XBP1s) as readout of IRE1α activity in ARPE-19; assay type: cell-based, Human
Source text: RNA isolation and quantitative PCR. Total RNA was extracted from cultured cells or mouse eye RPE layer using the RNeasy Mini kit (QIAGEN). The total RNA was digested with deoxyribonuclease I to prevent amplification of genomic DNA. The total RNA then was reversed transcribed using High-Capacity cDNA Reverse Transcription Kit (ThermoFisher Scientific, cat.no. 4368814) and analyzed gene expression using SYBR Green Master Mix (ThermoFisher Scientific, cat.no. 4472908) in an Applied Biosystems StepOne real time PCR machine. GAPDH was used as a reference gene. […] After genes were amplified by real time PCR, some of the PCR products were separated by 2.5% agarose gel.

[4] = system: UPR (PERK and ATF6 branches); assay: Western blot of ER-stress markers (p-eIF2a, ATF4, BiP, ATF6) without illumination; assay type: cell-based, Human
Description: (§1) Immunoblotting. Total cell lysates were extracted using RIPA lysis buffer (50 mM TrisHCl, Ph 8.0, 150 mM NaCl, 1% NP40, 0.5% Sodium Deoxycholate, 0.1% SDS, protease-phosphatase inhibitor) after the incubation of the specific sample group in a 48 well plate. Sonication or syringing (20 times) was done followed by centrifugation at 12,000×g for 10 mins and the supernatant was collected and stored in −80° C. Proten concentration from homogenates were assessed by Pierce Rapid Gold BCA protein assay kit (ThermoFisher Scientific, cat.no. A53225). Then 30 μg of protein was analyzed by standard SDS-PAGE gel. Samples were mixed 4:1 (v:v) with Nupage loading buffer with or without 8% 0-mercaptoethanol and heated for 10 min at 72° C. SDS-PAGE was done using 4-12% Nupage gel and buffer (Life, NP0335BOX). Next, SDS-PAGE gel was transferred to nitrocellulose membrane (Whatman, PROTAN BA83) overnight at 20V. The following day, 5% milk in TBS was used for 2 h blocking the membrane and then primary antibody was added in TBST (TBS, 0.1% Tween-20) for overnight at 4° C. Next day membranes were washed and incubated for 2 hours at room temperature with HRP conjugated secondary antibody (cat #G21234, Invitrogen) at 1:10,000 dilution. After 3 more washed membranes were probed with enhanced chemiluminescence (ECL) reagent and detected using an X-ray films for chemiluminescence image (GE healthcare, RPN2106). Scanning/imaging and quantitation of the image was done using silverfast 8 application software and Fiji Image J. Antibodies for Western blotting were list in FIG. 10.
The causal link between LF accumulation and ER-stress without light assistance was analyzed (FIG. 6A). […] The activation of the IRE1α branch was visualized by qPCR.

[5] = Detection of lipid bisretinoids aggregation by filter passage; assay type: physicochemical
Source text: Detection of lipid bisretinoids aggregation.

human MLKL = assay: Western blot of Ser358 phospho-MLKL, phosphorylation and polymerization of MLKL; assay type: cell-based; conditions: absence of light
Description: as §1
For its phosphorylation, MLKL and its kinase need to be recruited into multiprotein complexes, known as necrosomes (FIG. 4O). Necrosomes are not well conserved among species and vary also with the nature of the stimuli that triggers their formation. […] Considering that phosphorylation of human MLKL at Ser358 (pMLKL), is a hallmark triggering event and marker of necroptosis, the Ser358-phosphorylation and polymerization status of MLKL in cells with LF was determined. […] A prerequisite for the assembly of these RIP kinases into necrosomes was their phosphorylation.

lysosomal membranes = assay type: cell-based
Source text: (§2) Next, A2E buildups were imaged using a combination of DIC and fluorescence: A2E appeared as granules with well-defined edges, both within cells or after drying over a coverslip (FIGS. 14D and 14E). Next, the ability of the suspected A2E crystals to damage lysosomal membranes was investigated. A recently developed galectin-3 puncta assay for early detection of lysosomal membrane permeabilization (LMP) was used. Briefly, cytosolic galectin-3 rapidly binds to the glycocalyx in the luminal face of lysosomal membranes as they become leaky, which is easily detectable with anti-galectin high-affinity antibodies. L-Leucyl-L-Leucine methyl ester (LLO) a lysosomotropic peptide that causes LMP was used as positive control of puncta formation (FIG. 14E). […] LMP was confirmed by showing the […] of cathepsin D, as surrogate of lysosomal enzymes. […] Also, very remarkable was the observation that the same unique pattern of protection with arimoclomol and Nec-7 but not Nec-1 was observable for LLO (FIG. 14K), consistent with the idea that necroptosis by A2E is being caused by LMP.

cathepsin D = assay type: cell-based
Source text: as §2

IRE1α [6] = assay: Western blot of light-independent phosphorylation of IRE1α induced by LF; assay type: cell-based
Description: as §1, with “The following day, 5% milk in TBS was used for 2 h blocking the membrane and then primary antibody was added in TBST (TBS, 0.1% Tween-20) for overnight at 4° C. Next day membranes were washed and incubated for 2 hours at room temperature with HRP conjugated secondary antibody (cat #G21234, Invitrogen) at 1:10,000 dilution.” left out

Oxidative damage by H2O2 = assay type: cell-based

O=C(/C=C/c1ccccc1)NC(NC(=S)Nc1cccc2cccnc12)C(Cl)(Cl)Cl (stereo not shown) [Salubrinal]
protection against lethal doses of A2E, viability (ARPE-19 cells [1]; ARPE19 pretreated 1 hr, then A2E 25 μM for 24 hrs in presence of drug, AlamarBlue): protected against lipofuscin | requirement of PERK / ATF4 for protection against lipofuscin (ARPE-19 cells [1]; with PERK inhibitor GSK2606414 or ATF4-shRNA, A2E 25 μM 24 hrs): needs PERK but not ATF4 to exert protection against lipofuscin | effect on LF-induced pMLKL plasma membrane localization (pMLKL): abrogated | protection against phototoxic decomposition of lipid bisretinoids (ARPE-19 cells [2]): does not protect against the phototoxic decomposition of lipid bisretinoids | effect on LF-induced XBP1 splicing (XBP1s, IRE1α activity) (IRE1α [3]; ARPE-19, qPCR, listed as SAL): inhibits IRE1α signaling; also recorded: abrogated

CC(C=CC1=C(C)CCCC1(C)C)=CC=CC(C)=Cc1cc(C=CC=C(C)C=CC2=C(C)CCCC2(C)C)cc[n+]1CCO [A2E, N-retinylidene-N-retinylethanolamine]
cleavage of ATF6 ([4]; 6 hrs treatment, 20 μM A2E): significant cleavage | Ser51 phosphorylation of eIF2a ([4]; without light): strongest Ser51 phosphorylation of eIF2a | cell death in ARPE19 cells exposed to the substance (ARPE-19 cells [1]; light-independent): Dose dependent cell death | passage through 3 μm filter in aqueous milieu ([5]; 3 μm cut-off, same material): did cross membranes with 3 μm cut-off | passage through 0.45 μm filter in aqueous milieu ([5]; 450 nm filter pores): could not move across 450 nm filter pores | induction of phosphorylation and polymerization of MLKL (human MLKL): dose-dependent phosphorylation and polymerization of MLKL | induction of XBP1s (IRE1α [3]; in the dark, qPCR): dose and time-dependent inductions of XBP1s | lysosomal membrane permeabilization (galectin-3 puncta) (lysosomal membranes): clearly caused puncta staining and therefore LMP | cathepsin-D activity (cathepsin D): caused reduction in cathepsin-D activity

CC(=O)N[C@@H](CS)C(=O)O [NAC, N-acetyl cysteine]
light-independent phosphorylation of IRE1α induced by LF in presence of antioxidant (IRE1α [6]): proceeded unaffected | prevention of oxidative damage by H2O2 (Oxidative damage by H2O2): effectively prevented oxidative damage by H2O2
